Values of other authors, collected in patent publication US4925831A, “Aminoalkyl naphthalenediols as host resistance enhancers against viral infection” (priority 1987, dated 1990).
Entries after “also recorded” stand apart in the source; their conditions may differ. Read-outs that look alike come from different tables or passages of the source.

Key:
[1] = in vivo
AIDS or ARC patients = details: result in words
HIV = details: result in words
[2] = tested on: HIV reverse transcriptase; details: result in words
[3] = not given; remark: listed apart in the source

## lentinan
[1]
  toxic side effects: undesirable toxic side effects, such as granulomatous inflammation

## NC(=O)c1ncn([C@@H]2O[C@H](CO)[C@@H](O)[C@H]2O)n1 [Ribavirin, 1β-D-ribofuranosyl-1,2,4-triazole-3-carboxamide]
AIDS or ARC patients
  clinical efficacy: inhibited viral replication and improved immune function in AIDS patients

## ammonium 21-tungsto-9-antimoniate [HPA-23]
AIDS or ARC patients
  clinical efficacy: no therapeutic benefit has been documented in AIDS patients
HIV
  effect on HIV growth / infectivity: some tendency to check the growth of HIV

## CC(C)(S)[C@@H](N)C(=O)O [D-Penicillamine, 3-mercapto-D-valine]
human, in vivo
  adverse / toxic effects, tolerability: temporarily depressed T cell levels in 13 AIDS patients
AIDS or ARC patients
  clinical efficacy: Inhibits HIV reproduction in humans; also recorded: suppressed the virus

## O=C(O)P(=O)(O)O [Foscarnet, trisodium phosphonoformate]
[2]
  inhibition of HIV reverse transcriptase: Inhibits HIV reverse transcriptase activity in vitro at levels pharmacologically acceptable in vivo
human, in vivo
  adverse / toxic effects, tolerability: serious side effects

## CC(C)(N1CC1C#N)N1CC1C(N)=O (stereo not shown) [Azimexon]
clinical, result in words
  adverse / toxic effects, tolerability: only toxic effect was mild hemolysis
AIDS or ARC patients
  clinical efficacy: improvements in symptoms and immune function in patients with ARC but not AIDS

## krestin
[1]
  toxic side effects: undesirable toxic side effects, such as granulomatous inflammation

## α-Interferon
AIDS or ARC patients
  clinical efficacy: induced tumor regression in some AIDS-related Kaposi's sarcoma cases
HIV
  effect on HIV growth / infectivity: Checks the growth of HIV in vitro

## CC(=O)Nc1ccc(C(=O)O)cc1.CC(=O)Nc1ccc(C(=O)O)cc1.CC(=O)Nc1ccc(C(=O)O)cc1.CC(O)CN(C)C.CC(O)CN(C)C.CC(O)CN(C)C.O=c1[nH]cnc2c1ncn2[C@@H]1O[C@H](CO)[C@@H](O)[C@H]1O [Inosine pranobex]
AIDS or ARC patients
  clinical efficacy: improve immune function in ARC patients

## Cc1cn([C@H]2C[C@H](N=[N+]=[N-])[C@@H](CO)O2)c(=O)[nH]c1=O [Azidothymidine, 3'-azido-3'-deoxythymidine]
clinical, result in words
  adverse / toxic effects, tolerability: some toxicity, with anemia and headaches
clinical, result in words, listed as AZT
  adverse / toxic effects, tolerability: virtually no toxic effects
AIDS or ARC patients
  clinical efficacy: promise in prolonging lives of patients with AIDS or AIDS-related complex (ARC)
[3]; in vivo
  half-life in the body: relatively short half-life in the body
[3]; oral
  oral absorption: Well absorbed orally

## CO[C@H]1/C=C/O[C@@]2(C)Oc3c(C)c(O)c4c(c3C2=O)C2=NC3(CCN(CC(C)C)CC3)NC2=C(NC(=O)/C(C)=C\C=C\[C@H](C)[C@H](O)[C@@H](C)[C@@H](O)[C@@H](C)[C@H](OC(C)=O)[C@@H]1C)C4=O [Ansamycin, rifabutin]
AIDS or ARC patients
  clinical efficacy: some efficacy in treating AIDS patients with an opportunistic infection caused by the bacterium Mycobacterium aviumintracellulare

## Cc1ccc(C(=O)Nc2ccc(S(=O)(=O)O)c3cc(S(=O)(=O)O)cc(S(=O)(=O)O)c23)cc1NC(=O)c1cccc(NC(=O)Nc2cccc(C(=O)Nc3cc(C(=O)Nc4ccc(S(=O)(=O)O)c5cc(S(=O)(=O)O)cc(S(=O)(=O)O)c45)ccc3C)c2)c1 [Suramin]
[2]
  inhibition of HIV reverse transcriptase: Potent inhibitor of HIV reverse transcriptase
AIDS or ARC patients
  clinical efficacy: little or no evidence of clinical improvement or immunologic recovery
